Measured values: ChEMBL document CHEMBL1201862, “PubChem BioAssay data set” (2004)
The source made the active and inactive calls.

Legend:
[1] = molecular target: Ubiquitin carboxyl-terminal hydrolase BAP1 (Homo sapiens, UniProt Q92560); test: BAP1 deubiquitinase inhibitors, dose response, biochemical (AID 714); format: functional
[2] = Late stage results for the probe development effort to identify inhibitors of Plasmodium falciparum gametocytes: Luminescence-based cell-based high throughput dose response assay to identify inhibitors of viability of late stage Plasmodium falciparum gametocytes.; format: functional
[3] = molecular target: Glucose-6-phosphate 1-dehydrogenase (Homo sapiens, UniProt P11413); test: human G6PD enzyme inhibitors, dose response, selectivity assay for P. falciparum G6PD inhibitor project, biochemical, fluorescence (AID 504792); format: functional
[4] = Shn3 3'UTR reporter inhibitors, dose response, cell-based, Clone20 osteoblasts, firefly luciferase, cherry-picked (AID 624132); format: functional;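 further: firefly luciferase luminescence from reporter carrying the Shn3 3'UTR in osteoblasts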
[5] = HepG2 cell cytotoxicity, dose response, cytotoxicity control for Shn3 inhibitor project, CellTiter-Glo, cherry-picked (AID 624134); format: functional, cell-based
[6] = control 3'UTR Renilla luciferase suppression, dose response, counter-screen for Shn3 inhibitor project, cell-based, Clone20-Shn3RL, cherry-picked (AID 624133); format: functional
[7] = HeLa 2N DNA content increase, dose response, cell-based, IC50 (AID 1117349); format: functional
[8] = cytotoxicity toward HCT116 cells – cell-based, CellTiter-Glo luminescence, IC50, dose response (AID 1117332); format: functional; settings: HCT-116
[9] = cytotoxicity toward Colo320 cells – cell-based, CellTiter-Glo luminescence, IC50, dose response (AID 1117334); format: functional; settings: COLO 320
[10] = HeLa 4N DNA content increase, dose response, cell-based, IC50 (AID 1117351); format: functional
[11] = CellTiter-Glo luminescent dose response of DLD-1 viability loss (AID 1117352); format: functional
[12] = HCT116 cell viability decrease, GSK3B pretreatment – CellTiter-Glo, IC50, dose response (AID 1117339); format: functional; settings: HCT-116
Paired box protein Pax-8 = Paired box protein Pax-8 (Homo sapiens, UniProt Q06710); test: inhibitors of PAX8-driven TPO luciferase reporter, dose response, RMG-I cells, cherry-pick (AID 687027); format: functional, cell-based;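 further: luciferase reporter driven by Pax8 target thyroperoxidase promoter measured by SteadyGlo luminescence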
[13] = PAX2 cell-based inhibition, dose response, selectivity assay for PAX8 inhibitor project, plate reader, dry powder samples (AID 743048); format: functional;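 further: HEK293 cells carrying a WT1 promoter luciferase reporter driven by expressed Pax2; potency is for inhibition of Pax2 driven reporter signal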
[14] = PAX5 activity inhibitors, dose response, selectivity assay for PAX8 inhibitor project, cell-based, plate reader, dry powder samples (AID 743047); format: functional;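 further: HEK293 cells carrying a Pax5 driven CD19 promoter luciferase reporter; potency of inhibitors that lower reporter luminescence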
[15] = IGROV1 ovarian cancer cell cytotoxicity, dose response, PAX8 inhibitor project, plate reader, dry powder samples (AID 743043); format: functional, cell-based; settings: IGROV-1
[16] = cytotoxicity in COV434 cells, dose response, cytotoxicity control for PAX8 inhibitor project, cell-based, plate reader, dry powder, SA7 (AID 743145); format: functional
[17] = cytotoxicity in OV-90 ovarian cancer cells, dose response, PAX8 inhibitor project, cell-based, plate reader, dry powder, SA8 (AID 743149); format: functional
[18] = cytotoxicity dependent on PAX8, dose response, cell-based, plate reader, dry powder (AID 743049); format: functional
[19] = molecular target: Voltage-gated inwardly rectifying potassium channel KCNH2 (Homo sapiens, UniProt Q12809); test: hERG protection from proarrhythmic block, potency, dose response, cell-based, thallium flux (AID 2121); format: ADME
[20] = molecular target: Sphingosine 1-phosphate receptor 2 (Homo sapiens, UniProt O95136); test: Dose Response Cell Based Assay for Antagonists of the S1P2 Receptor. [Related pubchem assays: 856, 736 ]; format: functional
[21] = molecular target: Peroxisome proliferator-activated receptor gamma/Nuclear receptor coactivator 1 (Homo sapiens, UniProt P37231); test: TR-FRET dose response biochemical High Throughput Screening assay for agonists of the steroid receptor coactivator 1 (SRC-1) recruitment by the peroxisome proliferator-activated receptor gamma (PPAR gamma): non-selective agonists. [Related pubchem assays (depositor defined):AID1300, AID1808, AID504735, AID631]; format: protein assay
[22] = molecular target: Peroxisome proliferator-activated receptor gamma/Nuclear receptor coactivator 3 (Homo sapiens, UniProt P37231); test: TR-FRET dose response biochemical High Throughput Screening assay for agonists of the steroid receptor coactivator 3 (SRC-3) recruitment by the peroxisome proliferator-activated receptor gamma (PPAR gamma): non-selective agonists. [Related pubchem assays: 1301 (Confirmation screen.), 1048 (Primary screen.)]; format: functional
[23] = molecular target: Peroxisome proliferator-activated receptor gamma/Nuclear receptor corepressor 2 (Homo sapiens, UniProt P37231+Q9Y618); test: Counterscreen for NR2E3 inverse agonists: TR-FRET-based biochemical high throughput dose response assay to identify inverse agonists of the interaction between peroxisome proliferator-activated receptor gamma (PPARg) and nuclear receptor co-repressor 2 (NCOR2).; format: functional
[24] = molecular target: Photoreceptor-specific nuclear receptor (Homo sapiens, UniProt Q9Y5X4); test: NR2E3 inverse agonists, dose response, biochemical, TR-FRET (AID 463256); format: functional
[25] = molecular target: Peroxisome proliferator-activated receptor gamma/Nuclear receptor coactivator 2 (Homo sapiens, UniProt P37231); test: TR-FRET dose response biochemical High Throughput Screening assay for agonists of the steroid receptor coactivator 2 (SRC-2) recruitment by the peroxisome proliferator-activated receptor gamma (PPAR gamma): non-selective agonists. [Related pubchem assays: 1297, 1032 ]; format: functional
[26] = molecular target: E3 ubiquitin-protein ligase Mdm2 (Homo sapiens, UniProt Q00987); test: enhancers of MDM2-luciferase reporter signal, concentration-effect titration, project on inhibitors of MDM2 ubiquitin ligase, cellular assay, luminescent readout, 384-well plate format (AID 1394); format: functional;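 further: MDM2 E3 inhibitors raise luminescence so EC50 is for signal enhancement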
[27] = Luminescence Cell-Based Dose Retest to Confirm Inhibitors of Cancer Stem Cells. [Related pubchem assays (depositor defined):AID2717, AID2721]; format: functional; settings: Homo sapiens
[28] = Inhibition of T. cruzi Tulahuen strain amastigotes in L-6 muscle cells Measured in Cell-Based and Microorganism Combination System Using Plate Reader - 2138-03_Inhibitor_Dose_CherryPick_Activity.; format: functional; settings: Rattus norvegicus, L6
[29] = cytotoxicity in L-6 rat myocytes, dose response, cytotoxicity control, cell-based, plate reader, cherry-pick (AID 651896); format: functional
[30] = Inhibition of Plasmodium falciparum NF54 Measured in Cell-Based System Using Plate Reader - 2138-11_Inhibitor_Dose_CherryPick_Activity.; format: functional
[31] = L. donovani amastigote growth inhibition, dose response, axenic amastigotes, plate reader, cherry pick (AID 651891); format: functional, cell-based; settings: Leishmania donovani
[32] = intracellular Trypanosoma cruzi inhibitors in host cells – cell-based, plate reader, cherry-pick samples, set 3, dose response (AID 651818); format: functional;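 further: compounds incubated with infected cells for about four days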
[33] = T. b. rhodesiense proliferation inhibition, dose response, STIB900 strain, plate reader, cherry pick (AID 651893); format: functional, cell-based; settings: Trypanosoma brucei
[34] = T. cruzi growth inhibition in host cells, dose response, cell-based, plate reader, dry powder, set 2 (AID 652275); format: functional
[35] = growth inhibition of intracellular T. cruzi, dose response, cell-based, plate reader, dry powder samples (AID 651845); format: functional
[36] = T. cruzi intracellular amastigote growth inhibition, dose response, imaging, CA-I/72 strain, bovine embryo skeletal muscle, dry powder (AID 651885); format: functional, cell-based
[37] = molecular target: T1, Aryl hydrocarbon receptor (Homo sapiens, UniProt P35869); test: Luminescence-based cell-based high throughput dose response assay for activators of the Aryl Hydrocarbon Receptor (AHR). [Related pubchem assays: 2796 (Primary screen (AHR activators in singlicate)), 2845 (Confirmation screen (AHR activators in triplicate)), 434939 (Counterscreen (PXR activators in triplicate)), 2804 (Summary (AHR activators))]; format: ADME
T1 sequence (P35869 whole entry): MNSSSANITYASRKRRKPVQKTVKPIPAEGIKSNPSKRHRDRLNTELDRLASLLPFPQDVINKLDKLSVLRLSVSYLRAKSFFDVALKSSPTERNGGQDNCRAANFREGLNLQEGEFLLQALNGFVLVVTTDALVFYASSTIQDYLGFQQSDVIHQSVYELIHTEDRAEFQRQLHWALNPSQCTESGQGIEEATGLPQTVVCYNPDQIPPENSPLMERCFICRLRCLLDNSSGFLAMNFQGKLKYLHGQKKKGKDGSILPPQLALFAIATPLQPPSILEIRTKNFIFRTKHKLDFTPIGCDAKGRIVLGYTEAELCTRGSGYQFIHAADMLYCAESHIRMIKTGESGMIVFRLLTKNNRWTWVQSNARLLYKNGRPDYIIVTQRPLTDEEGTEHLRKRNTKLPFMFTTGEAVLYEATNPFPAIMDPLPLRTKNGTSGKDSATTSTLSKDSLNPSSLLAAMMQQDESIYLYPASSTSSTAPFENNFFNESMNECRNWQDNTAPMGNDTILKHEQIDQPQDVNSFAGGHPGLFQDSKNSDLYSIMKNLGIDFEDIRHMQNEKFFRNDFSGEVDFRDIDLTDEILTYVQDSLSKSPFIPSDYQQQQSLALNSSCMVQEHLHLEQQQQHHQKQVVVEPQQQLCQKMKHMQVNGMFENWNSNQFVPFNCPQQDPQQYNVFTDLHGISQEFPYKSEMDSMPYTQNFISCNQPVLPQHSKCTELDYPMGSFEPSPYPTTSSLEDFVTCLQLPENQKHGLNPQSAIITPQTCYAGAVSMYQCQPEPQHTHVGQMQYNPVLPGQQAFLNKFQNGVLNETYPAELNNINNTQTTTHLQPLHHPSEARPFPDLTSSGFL

[38] = HepG2 cell cytotoxicity, dose response, cytotoxicity control, luminescence, dry powder, set 9 (AID 743358); format: functional, cell-based
[39] = molecular target: RNA-editing ligase 1, mitochondrial (Trypanosoma brucei brucei, UniProt P86926); test: TbREL1 ligase inhibitors, dose response, biochemical, fluorescence, Trypanosoma brucei (AID 1117295); format: functional
[40] = Dose-response inhibition of insulin secretion in a rat insulinoma line at 5 mM glucose (AID 1117331); format: functional, cell-based; settings: INS-1E
cells = format: functional, cell-based; settings: INS-1E

Chain of Photoreceptor-specific nuclear receptor (Q9Y5X4 whole entry): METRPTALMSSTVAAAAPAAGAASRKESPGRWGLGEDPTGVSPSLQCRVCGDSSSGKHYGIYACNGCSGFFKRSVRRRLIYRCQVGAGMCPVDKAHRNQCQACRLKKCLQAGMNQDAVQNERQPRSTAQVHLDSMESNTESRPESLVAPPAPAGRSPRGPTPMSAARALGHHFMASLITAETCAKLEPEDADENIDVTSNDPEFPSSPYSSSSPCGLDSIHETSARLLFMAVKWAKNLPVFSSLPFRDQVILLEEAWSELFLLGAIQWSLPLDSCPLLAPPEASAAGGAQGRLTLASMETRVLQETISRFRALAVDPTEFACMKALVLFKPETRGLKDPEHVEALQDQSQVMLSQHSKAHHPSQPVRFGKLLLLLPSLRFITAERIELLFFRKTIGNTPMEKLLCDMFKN
Chain of Voltage-gated inwardly rectifying potassium channel KCNH2 (Q12809 whole entry): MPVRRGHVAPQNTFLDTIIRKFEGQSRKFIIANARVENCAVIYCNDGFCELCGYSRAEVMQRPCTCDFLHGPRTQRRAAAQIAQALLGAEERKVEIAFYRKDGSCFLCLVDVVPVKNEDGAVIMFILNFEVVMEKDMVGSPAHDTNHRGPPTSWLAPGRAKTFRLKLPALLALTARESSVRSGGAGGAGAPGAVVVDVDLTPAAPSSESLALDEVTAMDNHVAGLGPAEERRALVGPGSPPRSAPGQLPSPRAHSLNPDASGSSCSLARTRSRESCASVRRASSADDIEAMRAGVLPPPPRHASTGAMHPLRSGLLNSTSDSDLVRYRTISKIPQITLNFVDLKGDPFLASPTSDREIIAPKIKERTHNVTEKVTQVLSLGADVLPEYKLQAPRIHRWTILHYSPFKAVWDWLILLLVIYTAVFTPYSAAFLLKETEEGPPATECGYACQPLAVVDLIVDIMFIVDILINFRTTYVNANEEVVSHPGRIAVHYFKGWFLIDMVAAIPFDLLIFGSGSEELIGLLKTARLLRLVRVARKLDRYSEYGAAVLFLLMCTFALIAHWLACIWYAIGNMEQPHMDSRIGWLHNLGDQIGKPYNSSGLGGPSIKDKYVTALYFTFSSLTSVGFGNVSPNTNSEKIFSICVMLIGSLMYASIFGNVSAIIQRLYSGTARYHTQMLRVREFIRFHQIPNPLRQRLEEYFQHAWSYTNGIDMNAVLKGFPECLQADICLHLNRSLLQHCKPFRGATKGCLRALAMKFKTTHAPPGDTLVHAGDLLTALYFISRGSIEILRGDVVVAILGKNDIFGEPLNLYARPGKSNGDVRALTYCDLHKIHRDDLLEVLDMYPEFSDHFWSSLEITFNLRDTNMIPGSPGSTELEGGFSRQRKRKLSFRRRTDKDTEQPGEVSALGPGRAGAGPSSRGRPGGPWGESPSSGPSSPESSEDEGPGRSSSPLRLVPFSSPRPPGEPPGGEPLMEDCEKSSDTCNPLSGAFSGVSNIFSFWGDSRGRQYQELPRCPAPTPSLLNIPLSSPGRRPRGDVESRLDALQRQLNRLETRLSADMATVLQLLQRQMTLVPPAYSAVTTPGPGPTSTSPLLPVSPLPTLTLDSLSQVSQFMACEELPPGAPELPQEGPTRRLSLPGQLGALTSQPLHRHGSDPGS
Chain of RNA-editing ligase 1, mitochondrial (P86926 whole entry): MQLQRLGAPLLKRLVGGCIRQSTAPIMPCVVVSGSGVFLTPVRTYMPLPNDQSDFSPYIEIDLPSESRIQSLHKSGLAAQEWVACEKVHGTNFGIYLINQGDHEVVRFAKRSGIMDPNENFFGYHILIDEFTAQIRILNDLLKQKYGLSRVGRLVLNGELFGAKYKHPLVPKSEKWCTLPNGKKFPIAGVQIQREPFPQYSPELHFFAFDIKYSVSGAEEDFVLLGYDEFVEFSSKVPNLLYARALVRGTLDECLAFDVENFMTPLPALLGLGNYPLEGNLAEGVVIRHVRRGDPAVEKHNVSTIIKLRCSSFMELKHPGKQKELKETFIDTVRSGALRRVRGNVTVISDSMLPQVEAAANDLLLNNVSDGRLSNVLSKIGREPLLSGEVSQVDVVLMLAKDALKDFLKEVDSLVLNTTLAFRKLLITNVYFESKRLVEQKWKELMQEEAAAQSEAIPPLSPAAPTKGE
Chain of Glucose-6-phosphate 1-dehydrogenase (P11413 whole entry): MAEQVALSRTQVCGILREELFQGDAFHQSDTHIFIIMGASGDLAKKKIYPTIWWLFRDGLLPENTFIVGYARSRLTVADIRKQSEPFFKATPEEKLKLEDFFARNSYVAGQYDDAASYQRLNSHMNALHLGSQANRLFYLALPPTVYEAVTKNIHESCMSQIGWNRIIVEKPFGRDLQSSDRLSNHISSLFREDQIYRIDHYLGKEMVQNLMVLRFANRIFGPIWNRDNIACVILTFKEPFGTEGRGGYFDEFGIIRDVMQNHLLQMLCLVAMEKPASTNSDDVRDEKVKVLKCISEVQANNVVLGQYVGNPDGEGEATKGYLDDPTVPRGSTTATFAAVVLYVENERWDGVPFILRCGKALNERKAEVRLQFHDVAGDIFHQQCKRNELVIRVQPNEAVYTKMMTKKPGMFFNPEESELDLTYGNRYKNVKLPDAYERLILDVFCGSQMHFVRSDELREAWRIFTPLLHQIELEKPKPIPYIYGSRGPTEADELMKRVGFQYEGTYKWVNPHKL
Chain of E3 ubiquitin-protein ligase Mdm2 (Q00987 whole entry): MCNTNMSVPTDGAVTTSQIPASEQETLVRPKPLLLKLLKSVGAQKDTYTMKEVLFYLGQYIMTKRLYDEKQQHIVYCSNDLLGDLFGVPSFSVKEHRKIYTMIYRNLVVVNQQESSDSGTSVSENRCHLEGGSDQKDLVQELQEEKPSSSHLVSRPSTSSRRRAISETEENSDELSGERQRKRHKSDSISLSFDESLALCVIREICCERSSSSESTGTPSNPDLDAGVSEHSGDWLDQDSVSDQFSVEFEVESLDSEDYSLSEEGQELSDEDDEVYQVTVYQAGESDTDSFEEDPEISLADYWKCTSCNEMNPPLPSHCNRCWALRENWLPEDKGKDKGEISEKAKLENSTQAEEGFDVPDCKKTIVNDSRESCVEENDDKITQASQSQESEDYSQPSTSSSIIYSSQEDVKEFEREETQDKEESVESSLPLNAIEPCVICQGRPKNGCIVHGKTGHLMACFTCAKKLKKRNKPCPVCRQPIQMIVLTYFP
Chain of Ubiquitin carboxyl-terminal hydrolase BAP1 (Q92560 whole entry): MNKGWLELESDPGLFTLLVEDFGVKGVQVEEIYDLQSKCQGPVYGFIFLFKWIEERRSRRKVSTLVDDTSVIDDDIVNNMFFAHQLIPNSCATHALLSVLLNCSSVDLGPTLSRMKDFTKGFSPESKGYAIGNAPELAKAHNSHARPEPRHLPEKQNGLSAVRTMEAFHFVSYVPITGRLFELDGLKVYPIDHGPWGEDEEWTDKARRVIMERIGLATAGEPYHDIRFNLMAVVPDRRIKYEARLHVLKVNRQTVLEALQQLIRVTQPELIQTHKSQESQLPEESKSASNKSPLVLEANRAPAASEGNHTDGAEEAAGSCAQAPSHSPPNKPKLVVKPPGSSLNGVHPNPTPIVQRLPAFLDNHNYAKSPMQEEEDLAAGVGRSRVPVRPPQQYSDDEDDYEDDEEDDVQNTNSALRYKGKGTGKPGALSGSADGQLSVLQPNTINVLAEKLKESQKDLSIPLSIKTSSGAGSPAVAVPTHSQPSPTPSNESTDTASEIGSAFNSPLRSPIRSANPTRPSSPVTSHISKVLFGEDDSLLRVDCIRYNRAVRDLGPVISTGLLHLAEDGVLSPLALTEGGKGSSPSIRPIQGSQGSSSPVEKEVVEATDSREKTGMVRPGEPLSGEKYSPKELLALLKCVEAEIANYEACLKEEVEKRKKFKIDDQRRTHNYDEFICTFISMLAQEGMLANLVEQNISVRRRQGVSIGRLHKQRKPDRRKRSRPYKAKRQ
Chain of Paired box protein Pax-8 (Q06710 whole entry): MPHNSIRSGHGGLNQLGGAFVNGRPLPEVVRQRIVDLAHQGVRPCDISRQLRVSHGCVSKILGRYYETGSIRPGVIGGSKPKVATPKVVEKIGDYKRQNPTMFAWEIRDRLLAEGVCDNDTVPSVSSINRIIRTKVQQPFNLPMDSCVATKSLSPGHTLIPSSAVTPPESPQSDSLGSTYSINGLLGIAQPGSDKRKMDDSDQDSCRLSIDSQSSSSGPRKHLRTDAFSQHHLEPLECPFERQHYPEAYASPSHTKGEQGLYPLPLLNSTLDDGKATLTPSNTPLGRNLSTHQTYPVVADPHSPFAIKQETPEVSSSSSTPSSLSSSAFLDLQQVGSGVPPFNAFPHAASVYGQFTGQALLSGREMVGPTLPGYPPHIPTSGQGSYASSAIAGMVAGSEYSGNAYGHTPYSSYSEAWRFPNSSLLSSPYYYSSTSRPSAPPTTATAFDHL
Chain of Sphingosine 1-phosphate receptor 2 (O95136 whole entry): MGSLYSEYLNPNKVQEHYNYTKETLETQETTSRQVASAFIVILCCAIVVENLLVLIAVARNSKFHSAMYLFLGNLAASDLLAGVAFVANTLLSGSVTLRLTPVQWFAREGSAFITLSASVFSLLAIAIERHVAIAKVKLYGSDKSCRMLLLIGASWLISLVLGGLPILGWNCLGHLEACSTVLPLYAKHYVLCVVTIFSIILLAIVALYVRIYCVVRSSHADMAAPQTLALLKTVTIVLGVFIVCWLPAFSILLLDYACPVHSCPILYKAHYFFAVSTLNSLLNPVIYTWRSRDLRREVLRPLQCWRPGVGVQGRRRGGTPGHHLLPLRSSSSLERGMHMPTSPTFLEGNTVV

## CSc1nc2c(cnn2-c2ccc(C)c(C)c2)c(=O)[nH]1
[1]
  IC50: > 50 µM (not active)

## O=C(NC1=NCCS1)c1cn(-c2ccccc2)nc1-c1cccnc1
[2]
  IC50: > 74.4 µM (inactive)

## O=C(Nc1ccc([N+](=O)[O-])cc1Cl)c1cc(Cl)ccc1O [NICLOSAMIDE]
[3]
  IC50: > 80 µM (inactive)
[4]
  AC50: 3 µM (active)
[5]
  AC50: 1.62 µM (active)
[6]
  AC50: 0.837 µM (active)
[7]
  IC50: > 10 µM (inactive)
[8]
  IC50: 0.00144 µM (active)
[9]
  IC50: 0.00826 µM (active)
[10]
  IC50: > 10 µM (inactive)
[11]
  IC50: 0.00349 µM (active)
[12]
  IC50: 0.00295 µM (active)

## C[C@H](CO)N1C[C@H](C)[C@@H](CN(C)Cc2ccc(C(F)(F)F)cc2)OCCCC[C@H](C)Oc2ccc(NS(=O)(=O)c3ccc(F)cc3)cc2C1=O
Paired box protein Pax-8
  AC50: 6.28 µM (active)
[13]
  AC50: 18.8 µM (active)
[14]
  AC50: 24.3 µM (active)
[15]
  AC50: 40.5 µM (active)
[16]
  AC50: 55.1 µM (active)
[17]
  AC50: 68.3 µM (active)
[18]
  AC50: 37.7 µM (active)

## COc1ccc(C(=O)CC(=O)C(=O)Nc2ccccc2OC)cc1
[19]
  EC50: 8.33 µM (active)

## O=C(O)c1sc2cc(C(F)(F)F)cnc2c1-c1cccs1
[20]
  IC50: > 30 µM (not active)

## Cc1cc2nc(-c3ccc(SCC(=O)Nc4ccc(S(=O)(=O)N5CCCC5)cc4)nc3)[nH]c2cc1C
[21]
  EC50: 11.6 µM (inactive)
[22]
  EC50: > 79.4 µM (not active)
[23]
  IC50: 2.07 µM (active)
[24]
  IC50: > 39.8 µM (not active)
[25]
  EC50: 11.1 µM (not active)

## N#Cc1c(N)nc2c(c1-c1cccc(O)c1)CCCCCC2
[26]
  EC50: 13.8 µM (not active)
[27]
  AC50: 5.01 µM (active)

## C[C@H]1CN([C@@H](C)CO)C(=O)c2cccc(NC(=O)c3ccncc3)c2O[C@@H]1CN(C)Cc1ccccc1
[28]
  IC50: 4.83 µM (inactive)
[29]
  IC50: > 100 µM (inactive)
[30]
  IC50: 4.83 µM (inactive)
[31]
  IC50: 84.4 µM (inactive)
[32]
  AC50: 0.08 µM (active)
[33]
  IC50: 35.1 µM (inactive)
[34]
  AC50: 0.0123 µM (active)
[35]
  AC50: 0.0123 µM (active)
[36]
  IC50: 0.00942 µM (active)

## O=C(Nc1cccc(Cl)c1)c1cccnn1
[37]
  EC50: 0.583 µM (active)

## CN1c2ccc(-c3cccc(F)c3)cc2[C@H]2[C@H](CCN2C(=O)Nc2ccccc2F)[C@H]1CO
[38]
  AC50: > 47 µM (inactive)

## COc1cccc(C(=O)NCCS(=O)(=O)NC(C)CCc2ccccc2)c1 (configuration not stated)
[39]
  IC50: > 96.6 µM (inactive)

## C#CCOC(C(=O)OCCN(C)C)(c1ccccc1)c1ccccc1
[40]
  IC50: 9.26 µM (inactive)
cells
  IC50: 9.67 µM (inactive)
